{"source": "patent US20120121574A1", "about": "“ANTIMICROBIAL, ANTIVIRAL, ANTICANCER AND IMMUNOMODULATORY PEPTIDES AND USES THEREFORE” (priority 2010, published 2012)", "key": {"[1]": {"test_system": "C. albicans SC5314 strain", "method": "In vitro activity of N10K against C. albicans SC5314 strain. The candidacidal activity of N10K peptide against C. albicans was assessed by a conventional colony forming unit (CFU) assay as previously described (Polonelli et al., 2003; Manfredi et al., 2005). Briefly, cells of C. albicans SC5314 were incubated at 37° C. for 6 hours (hr) in the presence of N10K at the concentration indicated of 20, 12.5 or 6.25 microgram/ml, or in distilled water as control (C). After incubation, cell suspensions were plated on Sabouraud dextrose agar and incubated at 30° C. for 48 hours when CFU were counted (** P<0.01 for N10K treated versus untreated cells, by t test). […]\nThe alanine-substituted derivatives (asd), defined according to the position held by the alanine-substituted aminoacid, were tested against C. albicans by a conventional colony forming unit (CFU) as previously described (Polonelli et al., 2003). Briefly, cells of C. albicans SC5314 were incubated at 37° C. for 6 hours in the presence of N10K or N10K asd at different scalar concentrations or distilled water as control. After incubation, cell suspensions were plated on Sabouraud dextrose agar and incubated at 30° C. for 48 hours when CFU were counted. Based on several independent replications, the EC50 value of each peptide was calculated by nonlinear regression analysis using Graph Pad Prism 4.01 software, San Diego, Calif., USA. […]\nIn vitro microbicidal activity of N10K derivative with 2 amino acid substitutions, or 80% sequence identity with native N10K, namely peptide Seq Id. No. 25 was tested against Candida albicans SC5314 as determined by Colony Forming Unit assay."}, "PBMC": {"test_system": "PBMC", "assay": "AlamarBlue cell viability assay on PBMC", "conditions": "1-20 micrograms/ml concentration range, 24 hours", "method": "In vitro activity of N10K against HIV-1. PBMC from healthy donors were cultured at the concentration of 2×10^6 cells/ml in 96 wells plates with RPMI 1640 supplemented with 10% FBS, 1% glutamine and 20 UI/ml rIL-2 for 24 hr before treatment with N10K, then the peptide was added at increasing concentrations (1, 10 and 20 micrograms/ml) for 24 hours. AlamarBlue was added (10% v/v) and incubated for 4 hours at 37° C. Cells viability was determined by the AlamarBlue Assay (Biosource International, Inc.). The absorbance was measured with an ELISA plate reader (Tecan Sunrise Absorbance Reader) at the double wavelength of 570/595 nm. AlamarBlue added to the complete RPMI1640 medium was used as blank. […] To verify the anti-HIV-1 activity, an in vitro infection applying two different experimental approaches was performed. PBMC from 3 healthy donors were purified by Ficoll gradient centrifugation, mixed in pool and cultured in RPMI 1640 medium (10% FBS, 1% glutamine and 1% penicillin streptomycin). Before infection cells were stimulated for 24 hours with PHA (5 micrograms/ml) and after with rIL-2 (20 UI/ml). […] Viral replication was evaluated measuring the concentration of the p24 antigen in the culture supernatants by the HIV p24 ELISA Ultrasensitive detection kit (PerkinElmer, Inc.). […]"}, "[2]": {"test_system": "B16F10-Nex2 melanoma cells", "assay": "melanoma cell viability by Trypan Blue exclusion", "conditions": "1 mM to 0.05 mM, 12 hr", "method": "(§1) In vitro activity of N10K against B16F10-Nex2, SKme128 and SKme125 melanoma cells. Peptide N10K and the relative scramble peptide (SP) used as negative control were diluted from 1 mM to 0.05 mM in RPMI with 10% FCS and incubated with B16F10-Nex2, SKme128 and SKme125 cells (5×10^3 cells/well) in 100 microliters per well for 12 hr at 37° C. Each peptide was tested in triplicate. After 12 hr, the cytotoxic activities of the peptides were determined by measuring cell viability by Trypan Blue exclusion. A 50% inhibition of cell growth was taken as a comparative index of cytotoxicity (EC50).\nas §1, with “T11F” for “N10K”, “microL” for “microliters”, “37 u°” for “37°”"}, "[3]": {"test_system": "C. neoformans 6995 strain", "conditions": "6 hours 37° C.; multiple experiments", "protocol": "After the incubation period, the cell suspensions have been plated on Sabouraud dextrose agar, then incubated at 30° C. and observed for CFU enumeration after 48 hours."}, "U937 cell line": {"test_system": "U937 cell line", "assay": "annexine-V/propidium iodide flow cytometry on U937", "conditions": "annexine-V/propidium iodide staining"}}, "note": "Where two headings read alike, the source gives them in different places. Where no end group is shown, it is not given here.", "data": [{"sequence": "NQVSLTCLVK [Peptide N10K, N Q V S L T C L V K]", "values": [{"measurement": "EC50", "setting": "[1]; 6 hours 37° C., several independent replications, peptide batches of Examples I and II", "value": 10, "unit": "µM"}, {"measurement": "EC50", "setting": "[1]; SC5314, 6 h", "value": 1, "unit": "µM"}, {"measurement": "cytotoxicity for PBMC (cell viability)", "setting": "PBMC", "value": "not to be cytotoxic"}, {"measurement": "cytotoxic activity (cell viability)", "setting": "[2]", "value": "showed activity"}, {"measurement": "EC50", "setting": "[3]", "value": 5.16, "unit": "µM"}, {"measurement": "induction of apoptotic/necrotic effects", "setting": "U937 cell line", "value": "exclude the induction of apoptotic/necrotic effects"}]}]}
